Reference: ChEMBL document CHEMBL1201862, “PubChem BioAssay data set” (2004)
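Exposure lasted 48 hours, with cells grown in 96-well plates and compounds tested at five concentrations. At the GI50, growth is halved.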 The source made the active and inactive calls. Cut-off read from the data, not from the text of the source: active = GI50 up to about 1.1 µM and inactive = higher.

Tests used:
Assay in all cases: inhibition of tumour cell growth, NCI panel, 48 h
[1] = test system: NCI-H23
[2] = test system: OVCAR-4
[3] = test system: NCI-H522
[4] = test system: UO-31
[5] = test system: MDA-MB-435
[6] = test system: MOLT-4
[7] = test system: HCT-15
[8] = test system: SNB-19
[9] = test system: EKVX
[10] = test system: SW-620
[11] = test system: HOP-62
[12] = test system: SN12C
[13] = test system: KM12
[14] = test system: OVCAR-5
[15] = test system: SF-268
[16] = test system: SK-MEL-28
[17] = test system: HCT-116
[18] = test system: MCF7
[19] = test system: CCRF-CEM
[20] = test system: A498
[21] = test system: TK-10
[22] = test system: U-251
[23] = test system: K562
[24] = test system: HT-29
[25] = test system: SK-OV-3
[26] = test system: DU-145
[27] = test system: HOP-92
[28] = test system: A549
[29] = test system: NCI-H460
[30] = test system: BT-549
[31] = test system: SK-MEL-5
[32] = test system: HCC 2998
[33] = test system: MDA-N
[34] = test system: ACHN
[35] = test system: SF-539
[36] = test system: Malme-3M
[37] = test system: LOX IMVI
[38] = test system: M14
[39] = test system: CAKI-1
[40] = test system: HL-60
[41] = test system: IGROV-1
[42] = test system: SNB-75
[43] = test system: PC-3
[44] = test system: OVCAR-3
[45] = test system: COLO 205
[46] = test system: UACC-257
[47] = test system: 786-0
[48] = test system: SK-MEL-2
[49] = test system: NCI/ADR-RES
[50] = test system: NCI-H226
[51] = test system: MDA-MB-231
[52] = test system: SF-295
[53] = test system: OVCAR-8
[54] = test system: RXF 393
[55] = test system: RPMI-8226
[56] = test system: T47D
[57] = test system: UACC-62
[58] = test system: SR

## COc1ccc(-c2nnc(CCCCCCCCc3nnc(-c4ccc(OC)cc4)o3)o2)cc1
[1]
  GI50: > 100 µM (inactive)
[2]
  GI50: > 100 µM (inactive)
[3]
  GI50: 84.3 µM (inactive)
[4]
  GI50: > 100 µM (inactive)
[5]
  GI50: > 100 µM (inactive)
[6]
  GI50: > 100 µM (inactive)
[7]
  GI50: > 100 µM
[8]
  GI50: 36.4 µM (inactive)
[9]
  GI50: > 100 µM (inactive)
[10]
  GI50: > 100 µM (inactive)
[11]
  GI50: 25.4 µM (inactive)
[12]
  GI50: > 100 µM (inactive)
[13]
  GI50: > 100 µM (inactive)
[14]
  GI50: > 100 µM (inactive)
[15]
  GI50: > 100 µM (inactive)
[16]
  GI50: > 100 µM (inactive)
[17]
  GI50: 60.7 µM (inactive)
[18]
  GI50: > 100 µM (inactive)
[19]
  GI50: > 100 µM (inactive)
[20]
  GI50: 44.4 µM (inactive)
[21]
  GI50: 65.2 µM (inactive)
[22]
  GI50: 27.6 µM (inactive)
[23]
  GI50: > 100 µM (inactive)
[24]
  GI50: > 100 µM (inactive)
[25]
  GI50: 54.2 µM (inactive)
[26]
  GI50: > 100 µM (inactive)
[27]
  GI50: 41.1 µM (inactive)
[28]
  GI50: > 100 µM (inactive)
[29]
  GI50: > 100 µM (inactive)
[30]
  GI50: 16.7 µM (inactive)
[31]
  GI50: > 100 µM (inactive)
[32]
  GI50: > 100 µM (inactive)
[33]
  GI50: > 100 µM (inactive)
[34]
  GI50: > 100 µM (inactive)
[35]
  GI50: 63.7 µM (inactive)
[36]
  GI50: > 100 µM (inactive)
[37]
  GI50: 91.4 µM (inactive)
[38]
  GI50: > 100 µM (inactive)
[39]
  GI50: > 100 µM (inactive)
[40]
  GI50: > 100 µM (inactive)
[41]
  GI50: > 100 µM (inactive)
[42]
  GI50: 27 µM (inactive)
[43]
  GI50: > 100 µM (inactive)
[44]
  GI50: > 100 µM (inactive)
[45]
  GI50: > 100 µM (inactive)
[46]
  GI50: > 100 µM (inactive)
[47]
  GI50: 57.4 µM (inactive)
[48]
  GI50: > 100 µM (inactive)
[49]
  GI50: > 100 µM (inactive)
[50]
  GI50: > 100 µM (inactive)
[51]
  GI50: 18.3 µM (inactive)
[52]
  GI50: 50.4 µM (inactive)
[53]
  GI50: 57.9 µM (inactive)

## CCN1CCC(O)(/C=C/c2ccc(OC)cc2)C(C(=O)/C=C/c2ccc(OC)cc2)C1 (configuration not stated)
[1]
  GI50: 12.4 µM (inactive)
[2]
  GI50: 13.3 µM (inactive)
[3]
  GI50: 12.5 µM (inactive)
[4]
  GI50: 9.93 µM (inactive)
[5]
  GI50: 6.05 µM (inactive)
[6]
  GI50: 2.72 µM (inactive)
[7]
  GI50: > 10 µM
[8]
  GI50: 15.1 µM (inactive)
[9]
  GI50: 13.6 µM (inactive)
[10]
  GI50: 4.53 µM (inactive)
[11]
  GI50: 18.2 µM (inactive)
[12]
  GI50: 14.8 µM (inactive)
[54]
  GI50: 2.37 µM (inactive)
[13]
  GI50: 7.8 µM (inactive)
[14]
  GI50: 15.2 µM (inactive)
[15]
  GI50: 13.8 µM (inactive)
[16]
  GI50: 12 µM (inactive)
[17]
  GI50: 3.81 µM (inactive)
[18]
  GI50: 3.08 µM (inactive)
[19]
  GI50: 1.34 µM (inactive)
[20]
  GI50: 13.3 µM (inactive)
[21]
  GI50: 13.8 µM (inactive)
[22]
  GI50: 6.34 µM (inactive)
[23]
  GI50: 2.75 µM (inactive)
[24]
  GI50: 7.16 µM (inactive)
[25]
  GI50: 10.6 µM (inactive)
[26]
  GI50: 10.9 µM (inactive)
[27]
  GI50: 9.48 µM (inactive)
[28]
  GI50: 16.6 µM (inactive)
[55]
  GI50: 2.26 µM (inactive)
[29]
  GI50: 11.1 µM (inactive)
[30]
  GI50: 15.5 µM (inactive)
[56]
  GI50: 6.04 µM (inactive)
[32]
  GI50: 14.9 µM (inactive)
[33]
  GI50: 7.5 µM (inactive)
[34]
  GI50: 13.7 µM (inactive)
[35]
  GI50: 13.7 µM (inactive)
[36]
  GI50: 17.1 µM (inactive)
[37]
  GI50: 2.37 µM (inactive)
[38]
  GI50: 15.5 µM (inactive)
[40]
  GI50: 3.15 µM (inactive)
[41]
  GI50: 13.7 µM (inactive)
[43]
  GI50: 11.3 µM (inactive)
[44]
  GI50: 14.1 µM (inactive)
[57]
  GI50: 12 µM (inactive)
[45]
  GI50: 4.2 µM (inactive)
[46]
  GI50: 11.1 µM (inactive)
[47]
  GI50: 4.03 µM (inactive)
[49]
  GI50: 6.15 µM (inactive)
[58]
  GI50: 3.46 µM (inactive)
[50]
  GI50: 16 µM (inactive)
[51]
  GI50: 5.02 µM (inactive)
[52]
  GI50: 11.8 µM (inactive)
[53]
  GI50: > 10 µM (inactive)
